Measurements: patent US20060211725A1, “Use” (Astellas Pharma Inc., priority 2002, published 2006)
Values joined by “and” are separate entries in the source; they are usually repeats but may differ in a detail not shown here. Identical values can stand only once. “Also recorded” adds a separate entry of the source.

How the values were obtained:
[1] = system: F344 kidney allograft in LEW recipient rats; assay: Recipient kidney function: plasma creatinine and proteinuria (Example 1); type: in vivo, rat; conditions: weekly for 90 days
Procedure: (§1) Inbred male Lewis rats (LEW) (RT1^I), weighing 250-300 g, were used as kidney transplantation recipients. Inbred male LEW and Fisher (F344) (RT1^IvI), weighing 250-350 g, were used as isograft and allograft donor rats, respectively. Kidney transplantation was performed using the modified technique of Fisher and Lee. [Fisher et al., Surgery, 58:904-914, 1965] Survival of kidney transplant was measured as time of recipient rat survival. Blood and 24 hr urine samples were collected once a week for plasma creatinine, proteinuria, and the measurement of antibody titer against donor glomeruli basement membrane protein (GBM). Kidney grafts were harvested on the 90th day posttranspalantation and subjected to histology and reverse transcriptase-polymerase chain reaction (RT-PCR) analysis. The compound (I), at doses of 10 mg/kg and 20 mg/kg were administered orally to recipient rats daily from day 0 to day 9 after transplantation. Control isograft and allograft recipients received no drug after transplantation.
The recipient's kidney function was determined by measuring their plasma creatinine and proteinuria once a week for 90 days. Blood and urine samples were collected from recipients with kidney grafts described in the above. Plasma creatinine was tested by Sigma Creatinine Kit and proteinuria by Bio-Rad Protein assay.

[2] = system: antibody against F344 rat glomeruli basement membrane protein; assay: ELISA of plasma antibody against donor GBM (Example 1); type: in vivo; conditions: near days 20, 40, 90
Procedure: as §1
Specific antibody against F344 rat glomeruli basement membrane protein in plasma from LEW recipients with F344 kidneys were also measured in the isograft, untreated allograft and allograft treated with the compound (I) at doses of 10 mg/kg and 20 mg/kg near days 20, 40, and 90 after transplantation by using ELISA assay.

[3] = system: F344 kidney allograft in LEW recipient rats; assay: Kidney allograft survival, prevention of chronic rejection (Example 1); type: in vivo, rat; conditions: 0-9 day; for Survival day: individual rats, n=5; for Survival rate (more than 90 days): untreated allograft 40%
Procedure: as §1

[4] = system: F344 kidney allograft in LEW recipient rats; assay: Kidney graft histology under rescue treatment, modified Banff criteria (Example 3); type: in vivo, rat
Procedure: (§2) The rats and kidney transplantation methods described in Example 1 were used. […] The isograft and untreated allograft served as control groups. Blood and urine samples were collected once a week from recipients with kidney grafts described in Example 1 for measuring their plasma creatinine and proteinuria. Plasma creatinine was tested by Sigma Creatinine Kit and proteinuria by Bio-Rad Protein assay.
Using the methods described in Example 1, histological changes of chronic allograft rejection under rescue treatment of the compound (I) were analyzed. Histological sections were blindly evaluated by two histologists and scored semiquantitatively based on modified Banff' criteria for transplant pathology.

[5] = system: F344 kidney allograft in LEW recipient rats; assay: Recipient kidney function under rescue treatment of chronic rejection (Example 3); type: in vivo, rat
Procedure: as §2

[6] = system: F344 kidney allograft in LEW recipient rats; assay: Kidney graft histology, modified Banff criteria (Example 1); type: in vivo, rat; conditions: for Banff grade: Fibro-intimal Hyperplasia / Banff grade: Glomerulitis / Banff grade: Glomerulosclerosis / Banff grade: Inflammation / Banff grade: Mesangiolysis / Banff grade: Transplant Glomerulopathy / Banff grade: Tubular Atrophy / Banff grade: Tubulitis / Banff grade: Vasculitis: graft day 90, one line per rat; for approximate cumulative reduction in Banff score: fibro-intimal hyperplasia / approximate cumulative reduction in Banff score: glomerulitis / approximate cumulative reduction in Banff score: glomerulosclerosis / approximate cumulative reduction in Banff score: interstitial inflammation / approximate cumulative reduction in Banff score: mesangiolysis / approximate cumulative reduction in Banff score: transplant glomerulopathy / approximate cumulative reduction in Banff score: tubular atrophy / approximate cumulative reduction in Banff score: tubulitis / approximate cumulative reduction in Banff score: vasculitis: vs untreated allograft control
Procedure: as §1
Kidney graft tissues were harvested from recipients on day 90th after transplantation for histological analysis. Graft samples were fixed in 10% NBF and subsequently processed then immediately embedded in ParaPlast™ paraffin embedding media. Samples were sectioned at 3 μm, pre-warmed, deparaffinized, rehydrated, and subsequently stained in one of four processes: Hematoxylin and Eosin, Per-Iodic Acid Schiff, Verhoeff's Combined Elastic Trichrome, and Per-Iodic Acid Silver Methenamine. Histological sections were blindly evaluated by two histologists and scored semiquantitatively based on modified Banff' criteria for transplant pathology. [Solez et al., Kidney Int., 44:411-422, 1993]

[7] = Compound (I) 10 mg/kg PO, 10 mg/kg
[8] = 20 mg/kg for 3 weeks during ongoing chronic rejection, vs untreated allograft control
[9] = rescue, From day 40-70 (20 mg/kg for 3 weeks), one line per rat
[10] = rescue 20 mg/kg PO for 3 weeks from onset of raised creatinine or proteinuria, after drug discontinued

SMILES: C#CCC/C(O)=C(\C#N)C(=O)Nc1ccc(C(F)(F)F)cc1 [Compound (I), (2Z)-2-cyano-3-hydroxy-N-[4-(trifluoromethyl)phenyl]-2-hepten-6-ynamide]
- plasma creatinine ([1]; 10 mg/kg PO day 0-9): maintained normal creatinine
- proteinuria ([1]; 10 mg/kg PO day 0-9): undetectable proteinuria
- plasma creatinine ([1]; 20 mg/kg PO day 0-9): maintained normal creatinine
- proteinuria ([1]; 20 mg/kg PO day 0-9): undetectable proteinuria
- production of antibody against donor GBM in plasma ([2]; 10 mg/kg PO day 0-9): a trend of reduced production of antibody against donor GBM
- production of antibody against donor GBM in plasma ([2]; 20 mg/kg PO day 0-9): a trend of reduced production of antibody against donor GBM
- Survival day [3, 7]: 28 days and > 90 days
- Survival rate (more than 90 days) [3, 7]: 80%
- Survival day ([3]; Compound (I) 20 mg/kg PO): >90(5) day
- Survival rate (more than 90 days) ([3]; Compound (I) 20 mg/kg PO, 20 mg/kg): 100%
- approximate cumulative reduction in Banff score: fibro-intimal hyperplasia [4, 8]: ~53%
- approximate cumulative reduction in Banff score: glomerulitis [4, 8]: ~38%
- approximate cumulative reduction in Banff score: interstitial inflammation [4, 8]: ~50%
- approximate cumulative reduction in Banff score: mesangiolysis [4, 8]: ~33%
- approximate cumulative reduction in Banff score: transplant glomerulopathy [4, 8]: ~89%
- approximate cumulative reduction in Banff score: tubular atrophy [4, 8]: ~42%
- approximate cumulative reduction in Banff score: tubulitis [4, 8]: ~70%
- approximate cumulative reduction in Banff score: vasculitis [4, 8]: ~92%
- Banff grade: Fibro-intimal Hyperplasia [4, 9]: ++ ((++):Grade 2, Moderate); also recorded: − ((−):Grade 0, Normal)
- Banff grade: Glomerulitis [4, 9]: + ((+):Grade 1, Mild); also recorded: − ((−):Grade 0, Normal); also recorded: ++ ((++):Grade 2, Moderate)
- Banff grade: Glomerulosclerosis [4, 9]: − ((−):Grade 0, Normal); also recorded: + ((+):Grade 1, Mild)
- Banff grade: Inflammation [4, 9]: + ((+):Grade 1, Mild); also recorded: ++ ((++):Grade 2, Moderate)
- Banff grade: Mesangiolysis [4, 9]: − ((−):Grade 0, Normal); also recorded: + ((+):Grade 1, Mild)
- Banff grade: Transplant Glomerulopathy [4, 9]: − ((−):Grade 0, Normal); also recorded: + ((+):Grade 1, Mild)
- Banff grade: Tubular Atrophy [4, 9]: − ((−):Grade 0, Normal); also recorded: + ((+):Grade 1, Mild)
- Banff grade: Tubulitis [4, 9]: − ((−):Grade 0, Normal)
- Banff grade: Vasculitis [4, 9]: +++ ((+++):Grade 3, Severe); also recorded: + ((+):Grade 1, Mild)
- plasma creatinine [5, 10]: tended to be at a normal level
- proteinuria [5, 10]: tended to be at a normal level
- recipient kidney function ([5]; rescue 20 mg/kg PO for 3 weeks, immediate effect): did not show an immediate improvement
- Banff grade: Fibro-intimal Hyperplasia ([6]; 10 mg from day 0-9): ++ ((++):Grade 2, Moderate); also recorded: − ((−):Grade 0, Normal)
- Banff grade: Glomerulitis ([6]; 10 mg from day 0-9): + ((+):Grade 1, Mild); also recorded: − ((−):Grade 0, Normal)
- Banff grade: Glomerulosclerosis ([6]; 10 mg from day 0-9): − ((−):Grade 0, Normal); also recorded: + ((+):Grade 1, Mild)
- Banff grade: Inflammation ([6]; 10 mg from day 0-9): + ((+):Grade 1, Mild); also recorded: ++ ((++):Grade 2, Moderate)
- Banff grade: Mesangiolysis ([6]; 10 mg from day 0-9): − ((−):Grade 0, Normal); also recorded: + ((+):Grade 1, Mild)
- Banff grade: Transplant Glomerulopathy ([6]; 10 mg from day 0-9): − ((−):Grade 0, Normal); also recorded: + ((+):Grade 1, Mild)
- Banff grade: Tubular Atrophy ([6]; 10 mg from day 0-9): + ((+):Grade 1, Mild)
- Banff grade: Tubulitis ([6]; 10 mg from day 0-9): − ((−):Grade 0, Normal)
- Banff grade: Vasculitis ([6]; 10 mg from day 0-9): + ((+):Grade 1, Mild); also recorded: +++ ((+++):Grade 3, Severe)
- approximate cumulative reduction in Banff score: fibro-intimal hyperplasia ([6]; 10 mg/kg PO day 0-9): ~63%
- approximate cumulative reduction in Banff score: glomerulitis ([6]; 10 mg/kg PO day 0-9): ~75%
- approximate cumulative reduction in Banff score: glomerulosclerosis ([6]; 10 mg/kg PO day 0-9): ~83%
- approximate cumulative reduction in Banff score: interstitial inflammation ([6]; 10 mg/kg PO day 0-9): ~50%
- approximate cumulative reduction in Banff score: mesangiolysis ([6]; 10 mg/kg PO day 0-9): ~83%
- approximate cumulative reduction in Banff score: transplant glomerulopathy ([6]; 10 mg/kg PO day 0-9): ~79%
- approximate cumulative reduction in Banff score: tubular atrophy ([6]; 10 mg/kg PO day 0-9): ~40%
- approximate cumulative reduction in Banff score: tubulitis ([6]; 10 mg/kg PO day 0-9): ~100%
- approximate cumulative reduction in Banff score: vasculitis ([6]; 10 mg/kg PO day 0-9): ~33%
- Banff grade: Fibro-intimal Hyperplasia ([6]; 20 mg from day 0-9): ++ ((++):Grade 2, Moderate); also recorded: + ((+):Grade 1, Mild)
- Banff grade: Glomerulitis ([6]; 20 mg from day 0-9): ++ ((++):Grade 2, Moderate); also recorded: + ((+):Grade 1, Mild); also recorded: − ((−):Grade 0, Normal)
- Banff grade: Glomerulosclerosis ([6]; 20 mg from day 0-9): − ((−):Grade 0, Normal)
- Banff grade: Inflammation ([6]; 20 mg from day 0-9): + ((+):Grade 1, Mild)
- Banff grade: Mesangiolysis ([6]; 20 mg from day 0-9): − ((−):Grade 0, Normal)
- Banff grade: Transplant Glomerulopathy ([6]; 20 mg from day 0-9): − ((−):Grade 0, Normal)
- Banff grade: Tubular Atrophy ([6]; 20 mg from day 0-9): + ((+):Grade 1, Mild); also recorded: − ((−):Grade 0, Normal)
- Banff grade: Tubulitis ([6]; 20 mg from day 0-9): − ((−):Grade 0, Normal)
- Banff grade: Vasculitis ([6]; 20 mg from day 0-9): +++ ((+++):Grade 3, Severe); also recorded: − ((−):Grade 0, Normal)
- approximate cumulative reduction in Banff score: fibro-intimal hyperplasia ([6]; 20 mg/kg PO day 0-9): ~44%
- approximate cumulative reduction in Banff score: glomerulitis ([6]; 20 mg/kg PO day 0-9): ~38%
- approximate cumulative reduction in Banff score: glomerulosclerosis ([6]; 20 mg/kg PO day 0-9): ~100%
- approximate cumulative reduction in Banff score: interstitial inflammation ([6]; 20 mg/kg PO day 0-9): ~67%
- approximate cumulative reduction in Banff score: mesangiolysis ([6]; 20 mg/kg PO day 0-9): ~100%
- approximate cumulative reduction in Banff score: transplant glomerulopathy ([6]; 20 mg/kg PO day 0-9): ~100%
- approximate cumulative reduction in Banff score: tubular atrophy ([6]; 20 mg/kg PO day 0-9): ~85%
- approximate cumulative reduction in Banff score: tubulitis ([6]; 20 mg/kg PO day 0-9): ~100%
- approximate cumulative reduction in Banff score: vasculitis ([6]; 20 mg/kg PO day 0-9): ~50%
